In ChEMBL document CHEMBL2417377, “Hit-to-lead optimization and kinase selectivity of imidazo[1,2-a]quinoxalin-4-amine derived JNK1 inhibitors” (Bioorg Med Chem Lett, 2013):

How the values were obtained:
Conditions in all cases: PC-3
[1] = biological target: Serine/threonine-protein kinase 16 (Homo sapiens) (UniProt O75716); assay: Inhibition of MPSK1 in human PC3 cell lysates at 10 uM using desthiobiotin-tagged ATP probe AX9989 followed by trypsinization by LC/MS analysis
[2] = biological target: AMPK alpha1/alpha2 (Homo sapiens) (UniProt P54646+Q13131); assay: Inhibition of AMPKalpha1/AMPKalpha2 in human PC3 cell lysates at 10 uM using desthiobiotin-tagged ATP probe AX9989 followed by trypsinization by LC/MS analysis; format: protein-complex assay
[3] = biological target: eIF-2-alpha kinase GCN2 (Homo sapiens) (UniProt Q9P2K8); assay: Inhibition of GCN2 in human PC3 cell lysates at 10 uM using desthiobiotin-tagged ATP probe AX9989 followed by trypsinization by LC/MS analysis
[4] = biological target: T1, EKC/KEOPS complex subunit TP53RK (Homo sapiens) (UniProt Q96S44); assay: Inhibition of PRPK in human PC3 cell lysates at 10 uM using desthiobiotin-tagged ATP probe AX9989 followed by trypsinization by LC/MS analysis
T1 sequence (whole entry): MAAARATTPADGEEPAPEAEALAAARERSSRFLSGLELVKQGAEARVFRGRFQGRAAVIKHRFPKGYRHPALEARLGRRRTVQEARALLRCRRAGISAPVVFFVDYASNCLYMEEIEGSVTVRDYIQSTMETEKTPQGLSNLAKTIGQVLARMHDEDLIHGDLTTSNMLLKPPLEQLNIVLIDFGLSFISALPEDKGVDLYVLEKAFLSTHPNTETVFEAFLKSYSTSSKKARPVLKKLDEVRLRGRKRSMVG

[5] = biological target: T2, Serine/threonine-protein kinase TAO1 (Homo sapiens) (UniProt Q7L7X3); assay: Inhibition of TAO1 in human PC3 cell lysates at 10 uM using desthiobiotin-tagged ATP probe AX9989 followed by trypsinization by LC/MS analysis
T2 sequence (whole entry): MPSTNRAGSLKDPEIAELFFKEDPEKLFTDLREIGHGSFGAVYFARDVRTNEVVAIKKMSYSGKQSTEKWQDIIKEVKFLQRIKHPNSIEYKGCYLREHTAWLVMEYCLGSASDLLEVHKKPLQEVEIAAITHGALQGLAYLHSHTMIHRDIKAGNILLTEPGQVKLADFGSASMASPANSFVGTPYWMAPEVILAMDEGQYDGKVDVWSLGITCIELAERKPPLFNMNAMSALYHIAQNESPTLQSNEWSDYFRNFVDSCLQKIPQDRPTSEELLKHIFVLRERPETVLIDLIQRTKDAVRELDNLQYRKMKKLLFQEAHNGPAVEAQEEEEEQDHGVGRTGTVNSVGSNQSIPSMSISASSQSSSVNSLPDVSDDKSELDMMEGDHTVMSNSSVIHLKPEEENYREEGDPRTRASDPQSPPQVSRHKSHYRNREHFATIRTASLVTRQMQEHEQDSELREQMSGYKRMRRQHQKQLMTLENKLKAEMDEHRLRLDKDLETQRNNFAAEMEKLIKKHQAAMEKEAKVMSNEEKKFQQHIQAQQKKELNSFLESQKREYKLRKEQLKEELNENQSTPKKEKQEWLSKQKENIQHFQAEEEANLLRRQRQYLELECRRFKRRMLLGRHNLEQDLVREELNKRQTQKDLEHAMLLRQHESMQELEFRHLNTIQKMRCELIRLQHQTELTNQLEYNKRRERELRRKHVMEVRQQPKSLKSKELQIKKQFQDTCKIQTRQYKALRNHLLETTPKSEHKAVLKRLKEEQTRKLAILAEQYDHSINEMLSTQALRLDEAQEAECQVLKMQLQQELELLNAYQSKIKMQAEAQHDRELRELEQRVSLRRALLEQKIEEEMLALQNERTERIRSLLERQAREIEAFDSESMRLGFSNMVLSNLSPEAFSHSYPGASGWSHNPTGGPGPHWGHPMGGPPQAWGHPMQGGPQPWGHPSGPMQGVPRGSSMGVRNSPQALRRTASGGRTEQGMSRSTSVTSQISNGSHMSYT

[6] = biological target: T3, Serine/threonine-protein kinase 4 (Homo sapiens) (UniProt Q13043); assay: Inhibition of MST1 in human PC3 cell lysates at 10 uM using desthiobiotin-tagged ATP probe AX9989 followed by trypsinization by LC/MS analysis
T3 sequence (whole entry): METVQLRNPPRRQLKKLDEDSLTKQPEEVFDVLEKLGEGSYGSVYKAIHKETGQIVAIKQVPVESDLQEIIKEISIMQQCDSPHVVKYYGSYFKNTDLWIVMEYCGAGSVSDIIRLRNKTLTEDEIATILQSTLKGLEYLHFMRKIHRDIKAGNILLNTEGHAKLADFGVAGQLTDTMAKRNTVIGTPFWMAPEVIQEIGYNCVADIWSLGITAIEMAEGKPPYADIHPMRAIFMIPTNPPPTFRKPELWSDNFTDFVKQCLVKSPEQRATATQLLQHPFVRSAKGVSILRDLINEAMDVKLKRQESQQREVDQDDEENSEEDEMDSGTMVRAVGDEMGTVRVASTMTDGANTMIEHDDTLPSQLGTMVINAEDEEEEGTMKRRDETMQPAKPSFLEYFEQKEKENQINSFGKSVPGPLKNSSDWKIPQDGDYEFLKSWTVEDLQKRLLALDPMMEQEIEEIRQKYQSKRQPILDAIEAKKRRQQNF

[7] = biological target: MAP/microtubule affinity-regulating kinase 3 (Homo sapiens) (UniProt P27448); assay: Inhibition of MARK3 in human PC3 cell lysates at 10 uM using desthiobiotin-tagged ATP probe AX9989 followed by trypsinization by LC/MS analysis
MAP/microtubule affinity-regulating kinase 3 (Homo sapiens), sequence (P27448 whole entry, looked up): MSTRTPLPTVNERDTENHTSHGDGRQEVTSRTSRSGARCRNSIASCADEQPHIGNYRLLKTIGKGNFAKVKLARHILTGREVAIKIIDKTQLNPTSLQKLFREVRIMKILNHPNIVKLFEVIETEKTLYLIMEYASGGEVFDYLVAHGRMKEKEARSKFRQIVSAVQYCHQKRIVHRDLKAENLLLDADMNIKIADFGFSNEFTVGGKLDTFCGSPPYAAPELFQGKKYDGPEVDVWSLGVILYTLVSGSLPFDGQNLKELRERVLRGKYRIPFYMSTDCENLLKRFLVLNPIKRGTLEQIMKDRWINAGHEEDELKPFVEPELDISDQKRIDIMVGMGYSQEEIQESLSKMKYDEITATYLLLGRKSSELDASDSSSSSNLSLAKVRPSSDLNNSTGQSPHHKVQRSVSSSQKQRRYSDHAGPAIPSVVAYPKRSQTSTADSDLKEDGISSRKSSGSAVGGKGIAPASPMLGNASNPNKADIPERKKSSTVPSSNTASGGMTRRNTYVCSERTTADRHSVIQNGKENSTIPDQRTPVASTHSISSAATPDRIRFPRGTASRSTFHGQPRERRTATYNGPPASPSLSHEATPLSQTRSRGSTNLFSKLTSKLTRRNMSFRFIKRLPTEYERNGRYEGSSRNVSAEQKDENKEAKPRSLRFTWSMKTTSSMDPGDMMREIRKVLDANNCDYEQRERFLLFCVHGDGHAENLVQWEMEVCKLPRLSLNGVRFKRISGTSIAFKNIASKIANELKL

Serine/threonine-protein kinase 16 (Homo sapiens), sequence (O75716 whole entry): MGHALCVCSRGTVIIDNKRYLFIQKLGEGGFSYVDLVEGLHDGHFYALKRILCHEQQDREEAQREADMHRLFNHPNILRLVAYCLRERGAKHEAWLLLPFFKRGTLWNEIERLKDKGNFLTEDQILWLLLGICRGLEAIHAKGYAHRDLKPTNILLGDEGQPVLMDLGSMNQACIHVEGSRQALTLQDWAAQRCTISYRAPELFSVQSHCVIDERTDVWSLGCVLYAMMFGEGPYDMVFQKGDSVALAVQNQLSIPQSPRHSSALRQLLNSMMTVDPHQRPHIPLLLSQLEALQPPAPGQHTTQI
AMPK alpha1/alpha2 (Homo sapiens), sequence (P54646 whole entry, looked up): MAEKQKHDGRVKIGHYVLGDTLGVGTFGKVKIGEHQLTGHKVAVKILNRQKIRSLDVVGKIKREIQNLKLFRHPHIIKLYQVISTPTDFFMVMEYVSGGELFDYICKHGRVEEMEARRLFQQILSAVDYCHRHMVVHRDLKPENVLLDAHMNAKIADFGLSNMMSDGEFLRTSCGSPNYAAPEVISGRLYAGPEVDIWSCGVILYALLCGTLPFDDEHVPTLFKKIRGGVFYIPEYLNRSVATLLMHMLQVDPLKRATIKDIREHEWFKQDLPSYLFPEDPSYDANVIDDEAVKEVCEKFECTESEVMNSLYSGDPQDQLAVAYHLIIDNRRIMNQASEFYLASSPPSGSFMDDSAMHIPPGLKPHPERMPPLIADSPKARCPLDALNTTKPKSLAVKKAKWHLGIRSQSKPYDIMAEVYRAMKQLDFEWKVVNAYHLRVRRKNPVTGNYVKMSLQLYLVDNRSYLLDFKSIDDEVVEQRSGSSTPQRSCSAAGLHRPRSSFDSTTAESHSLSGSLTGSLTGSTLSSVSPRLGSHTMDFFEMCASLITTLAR
AMPK alpha1/alpha2 (Homo sapiens), sequence (Q13131 whole entry, looked up): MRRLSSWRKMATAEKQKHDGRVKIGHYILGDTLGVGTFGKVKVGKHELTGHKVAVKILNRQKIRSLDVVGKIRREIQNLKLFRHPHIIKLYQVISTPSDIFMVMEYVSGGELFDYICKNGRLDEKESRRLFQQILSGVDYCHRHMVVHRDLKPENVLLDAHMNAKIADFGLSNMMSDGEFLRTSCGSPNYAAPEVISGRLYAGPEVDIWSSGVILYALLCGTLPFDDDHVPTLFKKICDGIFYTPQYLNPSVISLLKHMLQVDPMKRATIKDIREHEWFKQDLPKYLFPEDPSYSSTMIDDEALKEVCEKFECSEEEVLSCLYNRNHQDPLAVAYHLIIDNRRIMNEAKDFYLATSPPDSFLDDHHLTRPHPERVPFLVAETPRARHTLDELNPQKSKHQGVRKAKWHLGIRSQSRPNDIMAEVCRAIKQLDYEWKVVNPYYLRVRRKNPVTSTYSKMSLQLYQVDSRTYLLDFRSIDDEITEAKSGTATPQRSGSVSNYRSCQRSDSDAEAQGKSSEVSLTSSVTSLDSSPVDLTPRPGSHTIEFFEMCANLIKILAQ
eIF-2-alpha kinase GCN2 (Homo sapiens), sequence (Q9P2K8 whole entry): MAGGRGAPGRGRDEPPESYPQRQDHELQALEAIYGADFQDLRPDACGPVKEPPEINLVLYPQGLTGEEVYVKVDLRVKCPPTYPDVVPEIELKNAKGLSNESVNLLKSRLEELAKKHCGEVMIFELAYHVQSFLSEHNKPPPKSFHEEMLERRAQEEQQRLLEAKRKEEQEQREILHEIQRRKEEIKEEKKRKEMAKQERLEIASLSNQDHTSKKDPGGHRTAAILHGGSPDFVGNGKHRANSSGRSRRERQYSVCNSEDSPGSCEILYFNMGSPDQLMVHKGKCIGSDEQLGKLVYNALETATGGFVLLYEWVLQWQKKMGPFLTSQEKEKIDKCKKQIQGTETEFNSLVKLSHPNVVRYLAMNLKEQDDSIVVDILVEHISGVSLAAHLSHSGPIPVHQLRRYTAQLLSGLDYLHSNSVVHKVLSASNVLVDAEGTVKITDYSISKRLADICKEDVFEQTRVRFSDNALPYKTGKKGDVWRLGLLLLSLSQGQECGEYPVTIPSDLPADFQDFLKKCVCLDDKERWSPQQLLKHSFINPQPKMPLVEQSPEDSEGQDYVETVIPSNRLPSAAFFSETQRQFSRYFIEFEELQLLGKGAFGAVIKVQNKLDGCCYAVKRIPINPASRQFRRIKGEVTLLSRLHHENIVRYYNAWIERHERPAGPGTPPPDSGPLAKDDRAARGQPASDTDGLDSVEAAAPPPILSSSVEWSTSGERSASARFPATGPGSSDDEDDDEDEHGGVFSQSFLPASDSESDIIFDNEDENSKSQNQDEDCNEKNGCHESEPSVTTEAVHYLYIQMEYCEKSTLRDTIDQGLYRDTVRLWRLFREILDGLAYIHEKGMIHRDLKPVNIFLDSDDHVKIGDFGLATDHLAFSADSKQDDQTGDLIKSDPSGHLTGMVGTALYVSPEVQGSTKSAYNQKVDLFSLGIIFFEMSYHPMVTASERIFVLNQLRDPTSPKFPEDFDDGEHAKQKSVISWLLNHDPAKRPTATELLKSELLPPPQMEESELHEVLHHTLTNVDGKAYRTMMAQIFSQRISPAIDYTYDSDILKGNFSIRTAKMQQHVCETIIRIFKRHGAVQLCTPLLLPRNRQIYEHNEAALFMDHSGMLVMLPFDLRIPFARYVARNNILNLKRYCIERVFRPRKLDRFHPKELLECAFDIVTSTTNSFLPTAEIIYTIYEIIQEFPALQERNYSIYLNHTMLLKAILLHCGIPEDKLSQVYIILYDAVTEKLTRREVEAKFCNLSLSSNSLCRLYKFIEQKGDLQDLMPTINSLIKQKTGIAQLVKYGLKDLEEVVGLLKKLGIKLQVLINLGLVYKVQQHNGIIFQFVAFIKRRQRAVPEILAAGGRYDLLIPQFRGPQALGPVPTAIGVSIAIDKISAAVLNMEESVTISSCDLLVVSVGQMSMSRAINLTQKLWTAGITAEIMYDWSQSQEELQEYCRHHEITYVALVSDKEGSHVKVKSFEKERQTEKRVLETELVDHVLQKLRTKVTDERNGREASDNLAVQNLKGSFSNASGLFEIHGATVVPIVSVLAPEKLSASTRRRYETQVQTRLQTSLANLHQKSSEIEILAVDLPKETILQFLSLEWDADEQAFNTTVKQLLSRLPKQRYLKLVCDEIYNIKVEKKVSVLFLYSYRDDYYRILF

| Compound | inhibition [1] | inhibition [2] | inhibition [3] | inhibition [4] | inhibition [5] | inhibition [6] | inhibition [7] |
| --- | --- | --- | --- | --- | --- | --- | --- |
| O=C(NC1(Cc2ccc(F)cc2)CC1)c1ccc2nc(N[C@H]3CC[C@H](O)CC3)c3nccn3c2c1 | < 35% | < 35% | < 35% | < 35% | < 35% | < 35% | < 35% |
| O=C(NC1(c2ccccc2)CCC1)c1ccc2nc(N[C@H]3CC[C@H](O)CC3)c3nccn3c2c1 | < 35% | < 35% | < 35% | < 35% | < 35% | < 35% | < 35% |
| CC[C@@H](NC(=O)c1ccc2nc(N[C@H]3CC[C@H](O)CC3)c3nccn3c2c1)c1ccccc1 | < 35% | < 35% | 38.5% | < 35% | < 35% | < 35% | < 35% |
| O=C(N[C@H](CO)c1ccccc1)c1ccc2nc(N[C@H]3CC[C@H](O)CC3)c3nccn3c2c1 | < 35% | 40.1% | 56.4% | < 35% | < 35% | < 35% | < 35% |
| CCC[C@@H](NC(=O)c1ccc2nc(N[C@H]3CC[C@H](O)CC3)c3nccn3c2c1)c1ccccc1 | < 35% | < 35% | < 35% | < 35% | < 35% | < 35% | < 35% |
| O=C(NC1(c2ccc(F)cc2)CC1)c1ccc2nc(N[C@H]3CC[C@H](O)CC3)c3nccn3c2c1 | < 35% | < 35% | < 35% | < 35% | < 35% | < 35% | < 35% |

The remaining lines, values ahead:

| inhibition [1] | inhibition [2] | inhibition [3] | inhibition [4] | inhibition [5] | inhibition [6] | inhibition [7] | Compound |
| --- | --- | --- | --- | --- | --- | --- | --- |
| 39.1% | < 35% | < 35% | < 35% | < 35% | < 35% | < 35% | NC(=O)c1ccc2nc(N[C@H]3CC[C@H](O)CC3)c3nccn3c2c1 |
| < 35% | 43.2% | 54% | < 35% | < 35% | < 35% | < 35% | C[C@@H](NC(=O)c1ccc2nc(N[C@H]3CC[C@H](O)CC3)c3nccn3c2c1)c1ccccc1 |
| < 35% | < 35% | < 35% | < 35% | < 35% | < 35% | < 35% | C[C@H](NC(=O)c1ccc2nc(N[C@H]3CC[C@H](O)CC3)c3nccn3c2c1)c1ccccc1 |
| < 35% | < 35% | < 35% | < 35% | < 35% | < 35% | < 35% | O=C(NC1(c2ccccc2)CC1)c1ccc2nc(N[C@H]3CC[C@H](O)CC3)c3nccn3c2c1 |
| < 35% | < 35% | < 35% | < 35% | < 35% | < 35% | < 35% | CC(C)(NC(=O)c1ccc2nc(N[C@H]3CC[C@H](O)CC3)c3nccn3c2c1)c1ccccc1 |
| 48.9% | < 35% | 41.7% | 86.6% | < 35% | < 35% | < 35% | O=C(O)c1ccc2nc(N[C@H]3CC[C@H](O)CC3)c3nccn3c2c1 |
